From patent US20250114345A1, “COMPOUNDS AND COMPOSITIONS AS CBP/P300 DEGRADERS AND USES THEREOF” (Oncopia Therapeutics, Inc. d/b/a/ SK Life Science Labs, priority 2023, published 2025)

Columns and labels:
[1] = molecular target: T1, CBP (Homo sapiens, UniProt Q92793); experiment: CBP degradation, HiBit technology in A549 CBP HiBit cells (24 h); assay type: cell-based; details: 24 hrs post treatment
T1 construct: host or cells: A549 CBP HiBit cells
Outline: (§1)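 Degradation potency and Dmax came from luminescence after 10 min room-temperature lysis with HiBit detection buffer. Beforehand, HiBit-tagged A549 lines received serial compound dilutions (10 mM DMSO stocks) at 37 °C, 5% CO2. CBP cells were read at 24 h, p300 cells at 2 h.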

[2] = molecular target: T2, p300 (Homo sapiens, UniProt Q09472); experiment: P300 degradation, HiBit technology in A549 P300 HiBit cells (2 h); assay type: cell-based; details: 2 hrs post treatment; for Dmax: A549, A549 P300 HiBit cells; for DC50: A549 P300 HiBit cells
T2 construct: host or cells: A549 P300 HiBit cells
Outline: as §1

T1 sequence (Q92793 whole entry): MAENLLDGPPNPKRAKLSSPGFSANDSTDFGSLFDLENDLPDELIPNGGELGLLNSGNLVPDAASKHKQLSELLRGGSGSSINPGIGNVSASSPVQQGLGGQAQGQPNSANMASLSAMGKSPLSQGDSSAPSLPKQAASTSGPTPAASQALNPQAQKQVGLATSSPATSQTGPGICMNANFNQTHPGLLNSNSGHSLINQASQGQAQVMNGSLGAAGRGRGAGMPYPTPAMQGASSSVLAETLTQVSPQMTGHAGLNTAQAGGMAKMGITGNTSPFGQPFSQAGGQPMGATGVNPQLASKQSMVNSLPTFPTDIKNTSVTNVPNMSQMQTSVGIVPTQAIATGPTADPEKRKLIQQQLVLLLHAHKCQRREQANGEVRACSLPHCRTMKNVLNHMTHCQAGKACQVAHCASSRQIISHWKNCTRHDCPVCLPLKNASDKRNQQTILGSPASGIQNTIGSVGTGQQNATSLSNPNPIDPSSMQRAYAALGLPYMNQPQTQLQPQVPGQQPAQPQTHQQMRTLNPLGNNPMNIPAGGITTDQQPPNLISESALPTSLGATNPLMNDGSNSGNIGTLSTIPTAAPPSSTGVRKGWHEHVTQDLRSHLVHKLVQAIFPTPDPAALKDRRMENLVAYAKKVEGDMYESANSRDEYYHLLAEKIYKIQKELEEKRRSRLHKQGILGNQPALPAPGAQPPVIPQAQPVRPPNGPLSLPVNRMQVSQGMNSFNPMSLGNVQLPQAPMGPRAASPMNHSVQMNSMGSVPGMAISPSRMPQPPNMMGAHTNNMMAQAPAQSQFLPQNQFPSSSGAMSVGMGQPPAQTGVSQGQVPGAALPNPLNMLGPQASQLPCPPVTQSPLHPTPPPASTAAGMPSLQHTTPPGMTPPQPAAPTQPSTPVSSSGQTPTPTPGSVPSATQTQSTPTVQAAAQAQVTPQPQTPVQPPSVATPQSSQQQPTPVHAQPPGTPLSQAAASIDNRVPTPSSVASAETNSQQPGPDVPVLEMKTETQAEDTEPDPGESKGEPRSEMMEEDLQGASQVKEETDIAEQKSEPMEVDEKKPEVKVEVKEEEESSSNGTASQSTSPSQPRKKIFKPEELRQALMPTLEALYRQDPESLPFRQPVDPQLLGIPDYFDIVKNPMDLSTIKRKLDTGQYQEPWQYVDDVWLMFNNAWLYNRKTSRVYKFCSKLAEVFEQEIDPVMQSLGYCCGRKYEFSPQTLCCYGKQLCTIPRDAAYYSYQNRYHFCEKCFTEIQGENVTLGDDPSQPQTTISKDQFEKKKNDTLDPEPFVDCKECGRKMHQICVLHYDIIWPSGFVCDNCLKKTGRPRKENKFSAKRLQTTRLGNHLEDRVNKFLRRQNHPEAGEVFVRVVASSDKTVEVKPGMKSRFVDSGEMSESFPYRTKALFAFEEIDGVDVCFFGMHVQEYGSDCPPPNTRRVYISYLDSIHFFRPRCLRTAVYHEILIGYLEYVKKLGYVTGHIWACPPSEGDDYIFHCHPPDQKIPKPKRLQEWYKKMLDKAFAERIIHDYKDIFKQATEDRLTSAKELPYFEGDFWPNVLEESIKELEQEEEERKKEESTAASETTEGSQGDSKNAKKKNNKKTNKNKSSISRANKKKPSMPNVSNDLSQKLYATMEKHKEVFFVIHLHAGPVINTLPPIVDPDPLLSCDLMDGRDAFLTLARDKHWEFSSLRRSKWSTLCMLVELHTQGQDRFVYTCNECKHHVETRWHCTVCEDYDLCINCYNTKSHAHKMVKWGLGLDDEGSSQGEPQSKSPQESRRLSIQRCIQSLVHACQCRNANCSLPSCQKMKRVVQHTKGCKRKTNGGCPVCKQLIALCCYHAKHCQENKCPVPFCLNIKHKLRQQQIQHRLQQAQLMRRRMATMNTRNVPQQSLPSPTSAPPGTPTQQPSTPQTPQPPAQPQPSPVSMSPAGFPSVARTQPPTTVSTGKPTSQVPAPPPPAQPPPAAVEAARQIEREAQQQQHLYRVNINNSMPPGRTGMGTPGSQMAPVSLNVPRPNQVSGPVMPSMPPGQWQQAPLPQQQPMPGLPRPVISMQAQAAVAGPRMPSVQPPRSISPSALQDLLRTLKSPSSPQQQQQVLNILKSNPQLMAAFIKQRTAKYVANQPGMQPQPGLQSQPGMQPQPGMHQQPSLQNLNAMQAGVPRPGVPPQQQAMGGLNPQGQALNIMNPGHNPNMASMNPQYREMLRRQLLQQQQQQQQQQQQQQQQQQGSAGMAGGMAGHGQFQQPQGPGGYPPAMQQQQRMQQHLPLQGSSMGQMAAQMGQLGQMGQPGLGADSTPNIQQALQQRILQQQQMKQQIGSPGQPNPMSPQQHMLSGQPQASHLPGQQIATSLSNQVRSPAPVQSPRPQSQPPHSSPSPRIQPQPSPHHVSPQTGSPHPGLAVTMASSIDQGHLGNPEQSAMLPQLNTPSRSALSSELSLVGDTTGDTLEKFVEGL
T2 sequence (Q09472 whole entry): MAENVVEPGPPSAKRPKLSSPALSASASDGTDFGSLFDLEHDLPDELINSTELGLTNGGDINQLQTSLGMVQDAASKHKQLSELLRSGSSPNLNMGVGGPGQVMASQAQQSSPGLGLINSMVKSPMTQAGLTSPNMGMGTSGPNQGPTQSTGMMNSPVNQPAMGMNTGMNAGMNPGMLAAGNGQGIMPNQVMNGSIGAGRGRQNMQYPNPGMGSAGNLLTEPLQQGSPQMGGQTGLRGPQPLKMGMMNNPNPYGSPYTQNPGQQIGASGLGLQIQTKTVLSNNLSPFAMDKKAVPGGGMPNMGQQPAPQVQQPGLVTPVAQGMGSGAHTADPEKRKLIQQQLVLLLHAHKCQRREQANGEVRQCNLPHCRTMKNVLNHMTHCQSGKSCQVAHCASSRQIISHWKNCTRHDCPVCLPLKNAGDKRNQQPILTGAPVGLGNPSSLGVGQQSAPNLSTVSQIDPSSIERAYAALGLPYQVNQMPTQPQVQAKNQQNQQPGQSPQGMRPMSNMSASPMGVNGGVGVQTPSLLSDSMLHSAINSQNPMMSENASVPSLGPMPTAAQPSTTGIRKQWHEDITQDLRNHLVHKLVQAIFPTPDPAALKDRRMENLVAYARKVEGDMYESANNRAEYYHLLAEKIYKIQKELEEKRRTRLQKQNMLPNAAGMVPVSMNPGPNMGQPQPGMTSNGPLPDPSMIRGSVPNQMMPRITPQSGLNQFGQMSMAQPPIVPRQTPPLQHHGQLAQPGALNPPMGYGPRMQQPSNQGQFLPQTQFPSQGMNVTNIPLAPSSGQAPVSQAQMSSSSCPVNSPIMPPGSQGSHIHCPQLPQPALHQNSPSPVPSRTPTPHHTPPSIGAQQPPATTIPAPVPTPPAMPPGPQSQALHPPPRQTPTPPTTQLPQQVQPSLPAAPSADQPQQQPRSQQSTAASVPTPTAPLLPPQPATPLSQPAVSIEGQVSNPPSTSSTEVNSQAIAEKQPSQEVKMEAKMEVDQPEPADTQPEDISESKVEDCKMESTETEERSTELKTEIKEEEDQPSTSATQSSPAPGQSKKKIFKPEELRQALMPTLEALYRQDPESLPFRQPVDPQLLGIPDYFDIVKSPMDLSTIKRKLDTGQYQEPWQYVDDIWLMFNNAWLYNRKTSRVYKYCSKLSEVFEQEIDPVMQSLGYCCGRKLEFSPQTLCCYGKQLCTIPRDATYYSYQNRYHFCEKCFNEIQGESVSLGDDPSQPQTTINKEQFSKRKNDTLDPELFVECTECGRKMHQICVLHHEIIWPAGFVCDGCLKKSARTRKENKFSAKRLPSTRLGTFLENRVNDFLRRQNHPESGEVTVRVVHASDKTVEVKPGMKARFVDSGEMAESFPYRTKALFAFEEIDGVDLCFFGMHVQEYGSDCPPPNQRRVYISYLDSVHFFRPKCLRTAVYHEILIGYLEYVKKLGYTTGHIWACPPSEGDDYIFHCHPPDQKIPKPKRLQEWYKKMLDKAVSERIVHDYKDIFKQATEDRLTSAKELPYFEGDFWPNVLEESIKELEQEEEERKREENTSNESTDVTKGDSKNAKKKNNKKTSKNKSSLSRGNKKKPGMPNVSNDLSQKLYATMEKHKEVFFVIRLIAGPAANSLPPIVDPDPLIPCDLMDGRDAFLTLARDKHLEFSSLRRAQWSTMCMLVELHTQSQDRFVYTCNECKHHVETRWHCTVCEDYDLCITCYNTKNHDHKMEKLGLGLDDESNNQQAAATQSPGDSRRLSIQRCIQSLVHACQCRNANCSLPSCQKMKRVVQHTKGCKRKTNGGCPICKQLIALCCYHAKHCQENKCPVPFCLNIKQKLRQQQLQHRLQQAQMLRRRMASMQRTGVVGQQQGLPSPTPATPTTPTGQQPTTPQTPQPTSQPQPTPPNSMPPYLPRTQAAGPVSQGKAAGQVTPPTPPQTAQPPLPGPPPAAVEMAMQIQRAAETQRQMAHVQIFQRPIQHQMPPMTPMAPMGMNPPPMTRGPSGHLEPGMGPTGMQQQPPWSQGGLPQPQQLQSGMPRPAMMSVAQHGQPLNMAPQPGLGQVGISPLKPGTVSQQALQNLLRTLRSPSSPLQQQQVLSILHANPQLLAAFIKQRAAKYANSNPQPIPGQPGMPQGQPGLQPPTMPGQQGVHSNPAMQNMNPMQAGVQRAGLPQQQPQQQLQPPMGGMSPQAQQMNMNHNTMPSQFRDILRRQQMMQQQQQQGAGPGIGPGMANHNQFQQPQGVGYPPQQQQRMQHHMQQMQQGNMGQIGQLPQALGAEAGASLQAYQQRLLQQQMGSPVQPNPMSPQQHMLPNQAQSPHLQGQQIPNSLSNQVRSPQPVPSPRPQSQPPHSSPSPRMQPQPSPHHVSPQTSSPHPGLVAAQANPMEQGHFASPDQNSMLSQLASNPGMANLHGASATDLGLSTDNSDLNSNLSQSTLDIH

| Structure (SMILES) | DC50 [1] [nM] | Dmax [1] [%] | Dmax [2] [%] | DC50 [2] [nM] |
| --- | --- | --- | --- | --- |
| Cn1c(=O)n(C)c2cc(N3CCOc4nc(-c5ccc(C(=O)NCC#Cc6ccc7occ(C89CC(C8)C(=O)NC9=O)c7c6)nc5)ncc43)ccc21 [Example A178, 5-(5-(1,3-dimethyl-2-oxo-2,3-dihydro-1H-benzo[d]imidazol-5-yl)-6,7-dihydro-5H-pyrimido[4,5-b][1,4]oxazin-2-yl)-N-(3-(3-(2,4-dioxo-3-azabicyclo [3.1.1]heptan-1-yl)benzofuran-5-yl)prop-2-yn-1-yl)picolinamide] | > 1000 | < 20 | 20 to 39 | 10 to 99 |
| Cn1c(=O)n(C)c2cc(C3=CC(C)(C)Oc4cc(-c5ccc(C(=O)NCC#Cc6cc7c(C8CCC(=O)NC8=O)cccc7o6)nc5)ncc43)ccc21 (stereo not shown) [Example A259, 5-(4-(1,3-dimethyl-2-oxo-2,3-dihydro-1H-benzo[d]imidazol-5-yl)-2,2-dimethyl-2H-pyrano[3,2-c]pyridin-7-yl)-N-(3-(4-(2,6-dioxopiperidin-3-yl)benzofuran-2-yl)prop-2-yn-1-yl)picolinamide] | > 1000 | < 20 | > 80 | 1 to 9.9 |
| Cc1cc2c(N3CCCc4nc(-c5ccc(C(=O)NCC#Cc6ccc7occ(C8CCC(=O)NC8=O)c7c6)nc5)ncc43)cc(C3CCOCC3)cc2n(C)c1=O (stereo not shown) [Example B53, 5-(5-(1,3-dimethyl-2-oxo-7-(tetrahydro-2H-pyran-4-yl)-1,2-dihydroquinolin-5-yl)-5,6,7,8-tetrahydropyrido[3,2-d]pyrimidin-2-yl)-N-(3-(3-(2,6-dioxopiperidin-3-yl)benzofuran-5-yl)prop-2-yn-1-yl)picolinamide] | > 1000 | < 20 | > 80 | < 1 |
| CC(C)c1cc(-c2cccc3cc(-c4ccc(C(=O)NCC#Cc5cnc6c(c5)c(C5CCC(=O)NC5=O)cn6C)nc4)ncc23)cc2c1n(C)c(=O)n2C (stereo not shown) [Example A202, N-(3-(3-(2,6-dioxo-piperidin-3-yl)-1-methyl-1H-pyrrolo [2,3-b]pyridin-5-yl)prop-2-yn-1-yl)-5-(8-(7-isopropyl-1,3-dimethyl-2-oxo-2,3-dihydro-1H-benzo[d]imidazol-5-yl)isoquinolin-3-yl)picolinamide] | > 1000 | < 20 | 60 to 79 | 10 to 99 |
| Cc1cc(-c2ncc(N(C)c3cc(C4CCOCC4)cc4c3cc(C)c(=O)n4C)cn2)cnc1C(=O)NCC#Cc1cc2c(C3CCC(=O)NC3=O)cccc2o1 (stereo not shown) [Example B59, 5-(5-((1,3-dimethyl-2-oxo-7-(tetrahydro-2H-pyran-4-yl)-1,2-dihydroquinolin-5-yl) (methyl)amino)pyrimidin-2-yl)-N-(3-(4-(2,6-dioxopiperidin-3-yl)benzofuran-2-yl)prop-2-yn-1-yl)-3-methylpicolinamide] | > 1000 | < 20 | > 80 | 1 to 9.9 |
| Cc1cc2c(N3CCCc4cc(-c5ccc(C(=O)NCC#Cc6cc7c(C8CCC(=O)NC8=O)nccc7o6)nc5)nnc43)cc(C3CCOCC3)cc2n(C)c1=O (stereo not shown) [Example B84, 5-(8-(1,3-dimethyl-2-oxo-7-(tetrahydro-2H-pyran-4-yl)-1,2-dihydroquinolin-5-yl)-5,6,7,8-tetrahydropyrido[2,3-c]pyridazin-3-yl)-N-(3-(4-(2,6-dioxopiperidin-3-yl)furo [3,2-c]pyridin-2-yl)prop-2-yn-1-yl) picolinamide] | 100 to 999 | < 20 | > 80 | < 1 |
| Cn1c(=O)n(C)c2c(N3CC4CCC(C3)O4)nc(-c3cccc4cc(-c5ccc(C(=O)NCC#Cc6ccc7occ(C8CCC(=O)NC8=O)c7c6)nc5)ncc34)cc21 (stereo not shown) [Example A86, 5-(8-(4-(8-oxa-3-azabicyclo[3.2.1]octan-3-yl)-1,3-dimethyl-2-oxo-2,3-dihydro-1H-imidazo[4,5-c]pyridin-6-yl)isoquinolin-3-yl)-N-(3-(3-(2,6-dioxo-piperidin-3-yl)benzofuran-5-yl)prop-2-yn-1-yl)picolinamide] | > 1000 | < 20 | > 80 | 1 to 9.9 |
| Cc1cc(-c2cc3cccc(-c4cc(C(C)C)c5c(c4)n(C)c(=O)n5C)c3cn2)cnc1C(=O)NCC#Cc1cccc(NC23CC(C2)C(=O)NC3=O)c1 [Example A177, N-(3-(3-((2,4-dioxo-3-azabicyclo[3.1.1]heptan-1-yl)amino)phenyl)prop-2-yn-1-yl)-5-(8-(7-isopropyl-1,3-dimethyl-2-oxo-2,3-dihydro-1H-benzo[d]imidazol-5-yl)isoquinolin-3-yl)-3-methylpicolinamide] | > 1000 | < 20 | > 80 | 10 to 99 |

Continued, values first:

| DC50 [1] [nM] | Dmax [1] [%] | Dmax [2] [%] | DC50 [2] [nM] | Structure (SMILES) |
| --- | --- | --- | --- | --- |
| 100 to 999 | < 20 | > 80 | < 1 | CC(C)c1cc(N2CCOc3cc(-c4ccc(C(=O)NCC#Cc5ccn6ncc(C7CCC(=O)NC7=O)c6c5)nc4)ncc32)cc2c1n(C)c(=O)n2C (stereo not shown) [Example A161, N-(3-(3-(2,6-dioxo-piperidin-3-yl)pyrazolo[1,5-a]pyridin-5-yl)prop-2-yn-1-yl)-5-(4-(7-isopropyl-1,3-dimethyl-2-oxo-2,3-dihydro-1H-benzo[d]imidazol-5-yl)-3,4-dihydro-2H-pyrido[4,3-b][1,4]oxazin-7-yl)picolinamide] |
| 10 to 99 | 40 to 59 | > 80 | 1 to 9.9 | CC(C)c1cc(-c2cccc3cc(-c4ccc(C(=O)NCC#Cc5ccc6cnn(C7CCC(=O)NC7=O)c6c5F)nc4)ncc23)cc2c1n(C)c(=O)n2C (stereo not shown) [Example A1, N-(3-(1-(2,6-Dioxopiperidin-3-yl)-7-fluoro-1H-indazol-6-yl)prop-2-yn-1-yl)-5-(8-(7-isopropyl-1,3-dimethyl-2-oxo-2,3-dihydro-1H-benzo[d]imidazol-5-yl)isoquinolin-3-yl)picolinamide] |
| 10 to 99 | 20 to 39 | > 80 | 1 to 9.9 | Cc1cc2c(N3CCCc4nc(-c5ccc(C(=O)NCC#Cc6cc7c(C8CCC(=O)NC8=O)nccc7o6)nc5)ncc43)nc(N3CCC3)cc2n(C)c1=O (stereo not shown) [Example B35, 5-(5-(7-(azetidin-1-yl)-1,3-dimethyl-2-oxo-1,2-dihydro-1,6-naphthyridin-5-yl)-5,6,7,8-tetrahydropyrido[3,2-d]pyrimidin-2-yl)-N-(3-(4-(2,6-dioxopiperidin-3-yl)furo[3,2-c]pyridin-2-yl)prop-2-yn-1-yl)picolinamide] |
| 1 to 9.9 | 40 to 59 | > 80 | < 1 | Cc1cc2c(N3CCN(C)c4nc(-c5ccc(C(=O)NCC#Cc6ccc7occ(C8CCC(=O)NC8=O)c7c6)nc5)ncc43)cc(C3CCOCC3)cc2n(C)c1=O (stereo not shown) [Example B124, 5-(5-(1,3-dimethyl-2-oxo-7-(tetrahydro-2H-pyran-4-yl)-1,2-dihydroquinolin-5-yl)-8-methyl-5,6,7,8-tetrahydropteridin-2-yl)-N-(3-(3-(2,6-dioxopiperidin-3-yl)benzofuran-5-yl)prop-2-yn-1-yl)picolinamide] |
| 10 to 99 | 40 to 59 | > 80 | 1 to 9.9 | Cc1cc2c(N3CCCc4nc(-c5ccc(C(=O)NCC#Cc6cc7c(C8CCC(=O)NC8=O)nccc7s6)nc5)ncc43)cc(C3CCOCC3)cc2n(C)c1=O (stereo not shown) [Example B81, 5-(5-(1,3-dimethyl-2-oxo-7-(tetrahydro-2H-pyran-4-yl)-1,2-dihydroquinolin-5-yl)-5,6,7,8-tetrahydropyrido[3,2-d]pyrimidin-2-yl)-N-(3-(4-(2,6-dioxopiperidin-3-yl)thieno[3,2-c]pyridin-2-yl)prop-2-yn-1-yl)picolinamide] |
